The record followed here is ChEMBL document CHEMBL5512619, “Anticancer mechanism of coumarin-based derivatives” (Eur J Med Chem, 2024).

The test system of one assay is A549. The assay can be described thus: Antiproliferative activity against human A549 cells incubated 24 hrs by MTT assay. In kind it is functional, cell-based. Conditions: A549, 24 h. Background: Tetrazolium assays rely on reduction of a dye to a coloured formazan, in cell work by metabolically active cells.
In another assay the test system is MDA-MB-231. The assay can be described thus: Antiproliferative activity against human MDA-MB-231 cells incubated 24 hrs by MTT assay. In kind it is functional, cell-based. As to conditions: MDA-MB-231, 24 h.
In assay [1] the test system is HeLa. The assay can be described thus: Antiproliferative activity against human HeLa cells assessed as inhibition of cell growth after 72 hrs by MTT assay. In kind it is functional, cell-based.
The subject of the next assay is SK-MEL-2. The assay can be described thus: Antiproliferative activity against human SK-MEL-2 cells assessed as inhibition of cell growth after 72 hrs by MTT assay. In kind it is functional, cell-based. As to conditions: SK-MEL-2, 72 h.
A short description of assay [2]: Antiproliferative activity against human Lu1 cells assessed as inhibition of cell growth after 72 hrs by MTT assay. In kind it is functional, cell-based. As to conditions: Lu1, 72 h.
In assay [3] the test system is HepG2. The assay can be described thus: Antiproliferative activity against human HepG2 cells assessed as inhibition of cell growth after 72 hrs by MTT assay. In kind it is functional, cell-based. Conditions: HepG2, 72 h.
The subject of another assay is MCF7. The assay can be described thus: Antiproliferative activity against human MCF7 cells assessed as inhibition of cell growth after 72 hrs by MTT assay. In kind it is functional, cell-based. As to conditions: MCF7, 72 h.
In assay [4] the test system is HepG2. The assay can be described thus: Cytotoxicity against human HepG2 cells. In kind it is functional, cell-based.
The nature of assay [5]: Cytotoxicity against human Lu1 cells. In kind it is functional, cell-based.
The test system of assay [6] is HeLa. The assay can be described thus: Cytotoxicity against human HeLa cells. In kind it is functional, cell-based.
Another assay addresses Carbonic anhydrase 2 (Homo sapiens, UniProt P00918). The assay can be described thus: Binding affinity to human CA2 assessed as inhibition constant incubated for 10 mins by phenol red dye based stopped flow CO2 hydration assay.
The target in the next assay is Carbonic anhydrase 1 (Homo sapiens, UniProt P00915). The assay can be described thus: Binding affinity to human CA1 assessed as inhibition constant incubated for 10 mins by phenol red dye based stopped flow CO2 hydration assay.
Assay [7] has as its target Receptor tyrosine-protein kinase erbB-2 (Homo sapiens, UniProt P04626). The assay can be described thus: Inhibition of HER2 (unknown origin).
Assay [8] deals with Epidermal growth factor receptor (Homo sapiens, UniProt P00533). The assay can be described thus: Inhibition of EGFR (unknown origin).

A value given as a limit tells only on which side of the number the result lay.

Sequence of Carbonic anhydrase 1 (P00915 whole entry): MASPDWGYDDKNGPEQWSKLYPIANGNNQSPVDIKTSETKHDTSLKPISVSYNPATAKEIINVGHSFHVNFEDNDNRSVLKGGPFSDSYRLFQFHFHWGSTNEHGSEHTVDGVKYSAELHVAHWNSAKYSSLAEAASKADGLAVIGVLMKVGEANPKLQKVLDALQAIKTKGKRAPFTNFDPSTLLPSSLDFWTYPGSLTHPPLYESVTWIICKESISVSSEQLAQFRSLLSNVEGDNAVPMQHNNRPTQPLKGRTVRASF
Sequence of Epidermal growth factor receptor (P00533 whole entry): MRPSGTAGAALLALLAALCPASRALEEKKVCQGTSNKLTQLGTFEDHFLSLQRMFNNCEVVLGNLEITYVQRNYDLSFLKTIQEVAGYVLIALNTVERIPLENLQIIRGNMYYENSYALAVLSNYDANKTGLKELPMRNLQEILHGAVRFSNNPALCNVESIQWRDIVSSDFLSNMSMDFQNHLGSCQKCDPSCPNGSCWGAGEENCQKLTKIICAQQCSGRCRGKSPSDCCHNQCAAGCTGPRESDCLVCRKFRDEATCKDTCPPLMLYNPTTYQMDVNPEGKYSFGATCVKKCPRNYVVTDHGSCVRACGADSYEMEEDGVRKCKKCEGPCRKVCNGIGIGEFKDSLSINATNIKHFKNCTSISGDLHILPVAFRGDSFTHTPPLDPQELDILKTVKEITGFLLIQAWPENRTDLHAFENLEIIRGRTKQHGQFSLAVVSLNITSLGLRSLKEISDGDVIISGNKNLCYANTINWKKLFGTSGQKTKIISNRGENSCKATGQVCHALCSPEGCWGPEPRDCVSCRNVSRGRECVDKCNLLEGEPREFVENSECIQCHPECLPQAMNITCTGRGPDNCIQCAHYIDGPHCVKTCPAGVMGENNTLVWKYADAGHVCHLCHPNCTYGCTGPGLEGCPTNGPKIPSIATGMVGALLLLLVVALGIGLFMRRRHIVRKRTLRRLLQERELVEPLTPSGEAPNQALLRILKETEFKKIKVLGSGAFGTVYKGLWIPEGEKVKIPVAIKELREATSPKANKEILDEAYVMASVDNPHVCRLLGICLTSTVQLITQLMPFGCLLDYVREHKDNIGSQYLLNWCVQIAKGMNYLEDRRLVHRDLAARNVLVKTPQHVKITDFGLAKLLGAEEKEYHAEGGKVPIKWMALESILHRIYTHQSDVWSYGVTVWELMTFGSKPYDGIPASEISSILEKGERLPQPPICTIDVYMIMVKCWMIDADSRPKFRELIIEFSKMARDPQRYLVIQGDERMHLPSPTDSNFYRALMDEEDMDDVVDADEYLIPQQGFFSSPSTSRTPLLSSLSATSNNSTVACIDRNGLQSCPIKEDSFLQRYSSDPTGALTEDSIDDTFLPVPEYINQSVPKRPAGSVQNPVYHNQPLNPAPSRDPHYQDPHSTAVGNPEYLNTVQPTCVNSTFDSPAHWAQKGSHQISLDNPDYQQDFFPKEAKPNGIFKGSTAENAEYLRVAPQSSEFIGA
Sequence of Receptor tyrosine-protein kinase erbB-2 (P04626 whole entry): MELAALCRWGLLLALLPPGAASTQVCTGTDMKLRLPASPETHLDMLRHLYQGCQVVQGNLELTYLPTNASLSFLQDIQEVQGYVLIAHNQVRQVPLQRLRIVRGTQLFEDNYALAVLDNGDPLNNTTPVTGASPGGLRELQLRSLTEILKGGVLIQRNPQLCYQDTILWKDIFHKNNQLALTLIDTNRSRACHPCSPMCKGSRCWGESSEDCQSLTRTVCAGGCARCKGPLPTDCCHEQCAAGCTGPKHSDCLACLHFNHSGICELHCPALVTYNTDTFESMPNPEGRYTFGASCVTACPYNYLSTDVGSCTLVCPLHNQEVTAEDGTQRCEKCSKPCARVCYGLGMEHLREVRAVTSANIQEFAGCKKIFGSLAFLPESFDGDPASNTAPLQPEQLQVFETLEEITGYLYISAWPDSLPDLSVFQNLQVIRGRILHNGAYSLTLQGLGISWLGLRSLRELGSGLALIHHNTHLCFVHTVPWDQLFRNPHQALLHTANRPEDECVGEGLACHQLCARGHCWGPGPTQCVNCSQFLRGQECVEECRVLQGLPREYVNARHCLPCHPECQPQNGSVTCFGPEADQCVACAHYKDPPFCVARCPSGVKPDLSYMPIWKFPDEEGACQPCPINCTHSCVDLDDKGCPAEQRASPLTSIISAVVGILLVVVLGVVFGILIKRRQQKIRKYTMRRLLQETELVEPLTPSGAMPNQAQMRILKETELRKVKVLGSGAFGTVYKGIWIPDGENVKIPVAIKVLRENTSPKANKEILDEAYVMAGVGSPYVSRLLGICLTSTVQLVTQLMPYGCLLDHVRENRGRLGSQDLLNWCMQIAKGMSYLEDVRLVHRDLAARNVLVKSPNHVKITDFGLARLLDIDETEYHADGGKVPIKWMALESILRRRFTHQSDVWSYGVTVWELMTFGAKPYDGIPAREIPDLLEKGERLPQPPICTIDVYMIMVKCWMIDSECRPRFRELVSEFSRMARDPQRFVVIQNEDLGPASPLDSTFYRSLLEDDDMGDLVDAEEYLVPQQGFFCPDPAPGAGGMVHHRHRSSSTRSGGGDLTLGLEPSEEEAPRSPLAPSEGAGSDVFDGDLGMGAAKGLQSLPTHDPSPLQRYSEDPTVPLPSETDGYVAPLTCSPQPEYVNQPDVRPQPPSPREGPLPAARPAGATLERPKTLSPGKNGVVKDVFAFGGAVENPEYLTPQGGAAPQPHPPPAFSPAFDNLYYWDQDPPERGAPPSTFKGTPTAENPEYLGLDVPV

For `COc1ccccc1-c1cc(-c2cc3ccccc3oc2=O)nc(Cc2ccc(F)cc2)n1`, the IC50 in the assay with A549 and in the assay with MDA-MB-231 was below 10000 nM each time.
As to `O=c1oc2ccccc2cc1-c1cc(-c2cccc(Cl)c2)nc(Cc2ccc(F)cc2)n1`, the IC50 with A549 and in the assay on MDA-MB-231 was below 10000 nM throughout.
For the compound `O=c1oc2ccccc2cc1-c1cc(-c2ccccc2Br)nc(Cc2ccc(F)cc2)n1`, the concentration for half-maximal inhibition (IC50) in the assay with A549 and in the assay with MDA-MB-231 was below 10000 nM throughout.
Consider `O=c1oc2ccccc2cc1-c1cc(-c2ccccc2Cl)nc(Cc2ccc(F)cc2)n1`, for which the IC50 with A549 and with MDA-MB-231 was below 10000 nM each time.
Consider `Cc1ccccc1-c1cc(-c2cc3ccccc3oc2=O)nc(Cc2ccc(F)cc2)n1`, for which the IC50 with A549 and in the assay on MDA-MB-231 was below 10000 nM throughout.
`Cc1cccc(-c2cc(-c3cc4ccccc4oc3=O)nc(Cc3ccc(F)cc3)n2)c1`: the IC50 in the assay on A549 and with MDA-MB-231 was below 10000 nM throughout.
For `COc1ccc(-c2cc(-c3cc4ccccc4oc3=O)nc(Cc3ccc(F)cc3)n2)cc1`, the IC50 in the assay on A549 and in the assay with MDA-MB-231 was below 10000 nM throughout.
For `Cc1ccc(-c2cc(-c3cc4ccccc4oc3=O)nc(Cc3ccc(F)cc3)n2)cc1`, the half-maximal inhibitory concentration (IC50) with A549 and in the assay on MDA-MB-231 was below 10000 nM throughout.
Regarding `O=c1oc2ccccc2cc1-c1cc(-c2cccc(Br)c2)nc(Cc2ccc(F)cc2)n1`, the IC50 with A549 and in the assay with MDA-MB-231 was below 10000 nM in each case.
Consider `O=c1oc2ccccc2cc1-c1cc(-c2ccc(Br)cc2)nc(Cc2ccc(F)cc2)n1`, for which the IC50 in the assay on A549 and in the assay on MDA-MB-231 was below 10000 nM in each case.
As for `O=c1oc2ccccc2cc1-c1cc(-c2ccc(Cl)cc2)nc(Cc2ccc(F)cc2)n1`, the IC50 in the assay on A549 and with MDA-MB-231 was below 10000 nM each time.
`COc1cccc(-c2cc(-c3cc4ccccc4oc3=O)nc(Cc3ccc(F)cc3)n2)c1`: the IC50 with A549 and with MDA-MB-231 was below 10000 nM each time.
Regarding `CC(=O)OC[C@H]1O[C@@H](NC(=S)N/N=C(\C)c2cc3ccccc3oc2=O)[C@H](OC(C)=O)[C@@H](OC(C)=O)[C@H]1OC(C)=O`, the half-maximal inhibitory concentration (IC50) (with HeLa [1]; in the assay with SK-MEL-2; in assay [2]; in the assay with HepG2 [3]; in the assay with MCF7) was 1280 nM throughout.
With `CC(=O)OC[C@H]1O[C@@H](n2c(-c3ccccc3)cs/c2=N\N=C(/C)c2cc3cc(Cl)ccc3oc2=O)[C@H](OC(C)=O)[C@@H](OC(C)=O)[C@H]1OC(C)=O`, the IC50 (in the assay with HepG2 [4]; in assay [5]; with HeLa [6]) was 1180 nM in each case.
Consider `CC(=O)OC[C@H]1O[C@@H](n2c(-c3ccccc3)cs/c2=N\N=C(/C)c2cc3cc(Br)ccc3oc2=O)[C@H](OC(C)=O)[C@@H](OC(C)=O)[C@H]1OC(C)=O`, for which the concentration for half-maximal inhibition (IC50) (in the assay with HepG2 [4]; in assay [5]; with HeLa [6]) was 1180 nM throughout.
With `C[C@@H]1CN(S(=O)(=O)c2cccc(C(=O)Nc3ccc4c(c3)C=CS(=O)(=O)O4)c2)C[C@H](C)O1`, the Ki on Carbonic anhydrase 2 and at Carbonic anhydrase 1 was 99.4 nM throughout.
Regarding `CC(=O)OC[C@H]1O[C@@H](NC(=S)N/N=C(\C)c2c(O)c3ccccc3oc2=O)[C@H](OC(C)=O)[C@@H](OC(C)=O)[C@H]1OC(C)=O`, the IC50 (in the assay on HeLa [1]; with SK-MEL-2; in assay [2]; in the assay with HepG2 [3]; in the assay with MCF7) was 1280 nM each time.
For `O=C(Nc1ccc2c(c1)C=CS(=O)(=O)O2)c1cccc(S(=O)(=O)N2CCOCC2)c1`, the Ki at Carbonic anhydrase 2 and on Carbonic anhydrase 1 was 99.4 nM each time.
With `O=C(Nc1ccc2c(c1)C=CS(=O)(=O)O2)c1cccc(S(=O)(=O)N2CCCC2)c1`, the Ki at Carbonic anhydrase 2 and on Carbonic anhydrase 1 was 99.4 nM each time.
As for `Cc1ccc(C(=O)Nc2ccc3c(c2)C=CS(=O)(=O)O3)cc1S(=O)(=O)N1CCCCC1`, the inhibition constant (Ki) at Carbonic anhydrase 2 and on Carbonic anhydrase 1 was 99.4 nM each time.
Regarding `COc1cccc2cc(/C(C)=N/NC(=S)N[C@@H]3O[C@H](COC(C)=O)[C@H](OC(C)=O)[C@H](OC(C)=O)[C@H]3OC(C)=O)c(=O)oc12`, the IC50 (with HeLa [1]; with SK-MEL-2; in assay [2]; with HepG2 [3]; in the assay on MCF7) was 1280 nM each time.
Turning to `C[C@@H]1CN(S(=O)(=O)c2cc(C(=O)Nc3ccc4c(c3)C=CS(=O)(=O)O4)ccc2F)C[C@H](C)O1`, the Ki at Carbonic anhydrase 2 and at Carbonic anhydrase 1 was 99.4 nM in each case.
As for `O=C(Nc1ccc2c(c1)C=CS(=O)(=O)O2)c1ccc(F)c(S(=O)(=O)N2CCOCC2)c1`, the Ki on Carbonic anhydrase 2 and on Carbonic anhydrase 1 was 99.4 nM each time.
`CC(=O)OC[C@H]1O[C@@H](NC(=S)N/N=C(\C)c2cc3ccc(C)cc3oc2=O)[C@H](OC(C)=O)[C@@H](OC(C)=O)[C@H]1OC(C)=O`: the IC50 (in the assay on HeLa [1]; in the assay on SK-MEL-2; in [2]; in the assay on HepG2 [3]; in the assay on MCF7) was 1280 nM throughout.
For the compound `CC(=O)OC[C@H]1O[C@@H](NC(=S)N/N=C(\C)c2cc3cc(Br)ccc3oc2=O)[C@H](OC(C)=O)[C@@H](OC(C)=O)[C@H]1OC(C)=O`, the IC50 (in the assay with HeLa [1]; with SK-MEL-2; in assay [2]; in the assay on HepG2 [3]; in the assay with MCF7) was 1280 nM each time.
With `C[C@@H]1CN(S(=O)(=O)c2cc(C(=O)Nc3ccc4c(c3)C=CS(=O)(=O)O4)ccc2Cl)C[C@H](C)S1`, the Ki on Carbonic anhydrase 2 and at Carbonic anhydrase 1 was 99.4 nM each time.
On to `CC(=O)OC[C@H]1O[C@@H](NC(=S)N/N=C(\C)c2cc3cc(C)ccc3oc2=O)[C@H](OC(C)=O)[C@@H](OC(C)=O)[C@H]1OC(C)=O`, for which the half-inhibitory concentration (IC50) (in the assay on HeLa [1]; in the assay with SK-MEL-2; in assay [2]; in the assay with HepG2 [3]; with MCF7) was 1280 nM in each case.
For the compound `CC(=O)OC[C@H]1O[C@@H](n2c(-c3ccccc3)cs/c2=N\N=C\c2cc(=O)oc3cc(C)ccc23)[C@H](OC(C)=O)[C@@H](OC(C)=O)[C@@H]1OC(C)=O`, the IC50 (in the assay on HepG2 [4]; in assay [5]; in the assay with HeLa [6]) was 1180 nM each time.
In the case of `O=C(Nc1ccc2c(c1)C=CS(=O)(=O)O2)c1ccc(Cl)c(S(=O)(=O)N2CCCCC2)c1`, the Ki at Carbonic anhydrase 2 and at Carbonic anhydrase 1 was 99.4 nM each time.
Regarding `COc1ccc(C(=O)Nc2ccc3c(c2)C=CS(=O)(=O)O3)cc1S(=O)(=O)N1CCCC1`, the inhibition constant (Ki) on Carbonic anhydrase 2 and at Carbonic anhydrase 1 was 99.4 nM each time.
As for `O=C(Nc1ccc2c(c1)C=CS(=O)(=O)O2)c1ccc(Cl)c(S(=O)(=O)N2CCOCC2)c1`, the Ki on Carbonic anhydrase 2 and at Carbonic anhydrase 1 was 99.4 nM in each case.
With `COc1ccc(C(=O)Nc2ccc3c(c2)C=CS(=O)(=O)O3)cc1S(=O)(=O)N1C[C@@H](C)O[C@@H](C)C1`, the inhibition constant Ki at Carbonic anhydrase 2 and at Carbonic anhydrase 1 was 99.4 nM in each case.
In the case of `COc1ccc(C(=O)Nc2ccc3c(c2)C=CS(=O)(=O)O3)cc1S(=O)(=O)N1CCOCC1`, the Ki on Carbonic anhydrase 2 and at Carbonic anhydrase 1 was 99.4 nM throughout.
Take `CC(=O)OC[C@H]1O[C@@H](NC(=S)N/N=C(\C)c2c(C)c3ccc(O)cc3oc2=O)[C@H](OC(C)=O)[C@@H](OC(C)=O)[C@H]1OC(C)=O`: the IC50 (with HeLa [1]; in the assay on SK-MEL-2; in assay [2]; in the assay with HepG2 [3]; with MCF7) was 1280 nM in each case.
For `O=C(Nc1ccc2c(c1)C=CS(=O)(=O)O2)c1ccc(F)c(S(=O)(=O)N2CCCC2)c1`, the Ki on Carbonic anhydrase 2 and at Carbonic anhydrase 1 was 99.4 nM each time.
For the compound `CC(=O)OC[C@H]1O[C@@H](NC(=S)N/N=C(\C)c2cc3cc(Cl)ccc3oc2=O)[C@H](OC(C)=O)[C@@H](OC(C)=O)[C@H]1OC(C)=O`, the IC50 (in the assay on HeLa [1]; in the assay with SK-MEL-2; in assay [2]; in the assay with HepG2 [3]; in the assay with MCF7) was 1280 nM each time.
With `CC(=O)OC[C@H]1O[C@@H](NC(=S)N/N=C(\C)c2c(C)c3ccccc3oc2=O)[C@H](OC(C)=O)[C@@H](OC(C)=O)[C@H]1OC(C)=O`, the IC50 (in the assay with HeLa [1]; in the assay with SK-MEL-2; in assay [2]; in the assay on HepG2 [3]; in the assay with MCF7) was 1280 nM each time.
In the case of `CC(=O)OC[C@H]1O[C@@H](n2c(-c3ccccc3)cs/c2=N\N=C(/C)c2cc3ccccc3oc2=O)[C@H](OC(C)=O)[C@@H](OC(C)=O)[C@@H]1OC(C)=O`, the IC50 (with HepG2 [4]; in assay [5]; in the assay with HeLa [6]) was 1180 nM throughout.
Regarding `CCCCCOc1ccc2oc(=O)cc(/C=N/N=c3\scc(-c4ccccc4)n3[C@@H]3O[C@H](COC(C)=O)[C@@H](OC(C)=O)[C@H](OC(C)=O)[C@H]3OC(C)=O)c2c1`, the IC50 in [7] amounted to 150 nM; with HepG2 [4], 1180 nM; in [5], 1180 nM; in assay [8], 150 nM; with HeLa [6], 1180 nM.
Consider `Cc1ccc(C(=O)Nc2ccc3c(c2)C=CS(=O)(=O)O3)cc1S(=O)(=O)N1CCCC1`, for which the Ki at Carbonic anhydrase 2 and on Carbonic anhydrase 1 was 99.4 nM in each case.
In the case of `CC(=O)OC[C@H]1O[C@@H](NC(=S)N/N=C(\C)c2c(O)c3cccc(C)c3oc2=O)[C@H](OC(C)=O)[C@@H](OC(C)=O)[C@H]1OC(C)=O`, the IC50 (in the assay on HeLa [1]; with SK-MEL-2; in assay [2]; in the assay on HepG2 [3]; in the assay with MCF7) was 1280 nM each time.
Take `COc1ccc(C(=O)Nc2ccc3c(c2)C=CS(=O)(=O)O3)cc1S(=O)(=O)N1CCSCC1`: the inhibition constant Ki on Carbonic anhydrase 2 and at Carbonic anhydrase 1 was 99.4 nM throughout.

The IC50 is the concentration that inhibits the measured activity by half. In general, Ki refers to a dissociation constant, usually derived from enzyme kinetics or from competition with a known ligand.
